Reference: US20210000782A1, “APPLICATION OF DROFENINE OR SALT THEREOF TO PREPARATION OF MEDICINE FOR TREATING PERIPHERAL NEURON AXONAL INJURY AND PERIPHERAL RELATED NEUROPATHY” (NANJING UNIVERSITY OF CHINESE MEDICINE, priority 2018, published 2021)

Experiments:
[1] = target: BChE (Homo sapiens, UniProt P06276); conditions: background statement; cited from earlier work
[2] = test system: STZ-induced type I diabetic mice; test: Heat pain testing experiment, type I diabetic peripheral neuropathy; assay type: in vivo, C57BL/6J mice; conditions: n = 6
Description: (§1) 1) Animal grouped administration condition (type I diabetic mice): C57BL/6J mice were purchased from Beijing Vital River. After adaptive feeding for a week, intraperitoneal injection of STZ (180 mg/kg) was performed. Blood glucose was measured after 4-7 days. Mice with the blood glucose higher than 16 mmol/L were randomly selected. After 6 weeks after the STZ injection, grouping was performed according to body weights and the blood glucose to obtain a control group (non-diabetic mice), a model group (DPN mice), drofenine (10 mg/kg), and drofenine (20 mg/kg). Intraperitoneal injection of drofenine was performed for 4 weeks. The motor nerve conduction velocity, mechanical pain and heat pain were respectively tested in 0th week, 4th week and 8th week after the STZ injection.
(§2) 2) Von Frey tactile measuring suits were purchased from a company, and a plantar test instrument was purchased from UGO company.
(§3) 4) Heat pain testing experiment: An infrared instrument was placed under the sole of the mouse, and kept still. The time was recorded when the paw of the mouse withdrew. This time was heat pain response time of the mouse.

[3] = test system: db/db type II diabetic mice; test: Paw withdrawal experiment (Von Frey, 50% mechanical pain threshold), type II diabetic peripheral neuropathy; assay type: in vivo; conditions: n = 6
Description: (§4) The experiment was based on that when rodents received a mechanical stimulation at their paws, they generated withdrawal reflex. A Von Frey may provide stimulation force in a range of 0.008 g to 300 g. A magnitude of the stimulation force was determined by a thickness and an extending length of a nylon wire. The nylon wire with a proper thickness was selected according to practical conditions in the experiment. The proper extending length was regulated to realize vertical stimulation on the skin. The magnitude of the stimulation force might be regulated by regulating the extending length and changing the nylon wire until the nylon wire bended. The response of mice on the pain was evaluated on the basis.
(§5) 2) Animal grouped administration condition (type II diabetic mice): 16-week-old db/db mice were selected and subjected to adaptive feeding for a week. Grouping was performed according to body weights and blood glucose to obtain a control group, a model group, a drofenine low-dose group (10 mg/kg), and a drofenine medium-dose group (20 mg/kg). Before administration, the motor nerve conduction velocity and a 50% mechanical pain threshold were measured to determine DPN symptoms. Intraperitoneal injection of drofenine was performed for 4 weeks. The mechanical pain, heat pain and motor nerve conduction velocity were tested in each week.
as §2
(§6) 3) Paw withdrawal Experiment: A nylon wire with a proper thickness was selected. A proper extending length was regulated to realize vertical simulation on the skin. The magnitude of stimulation force might be regulated by regulating the extending length and changing the nylon wire until the nylon wire bended. Each mouse was tested for six times to determine a threshold. A 50% mechanical pain threshold of the mice was calculated according to 50% threshold=(10^ (x^f+kδ))/10000.

[4] = test system: STZ-induced type I diabetic mice; test: Paw withdrawal experiment (Von Frey, 50% mechanical pain threshold), type I diabetic peripheral neuropathy; assay type: in vivo, C57BL/6J mice; conditions: n = 6
Description: as §4, §1, §2, §6

[5] = test system: db/db type II diabetic mice; test: Heat pain testing experiment, type II diabetic peripheral neuropathy; assay type: in vivo; conditions: n = 6
Description: as §5, §2, §3

[6] = test system: STZ-induced type I diabetic mice; test: Motor nerve conduction velocity, type I diabetic peripheral neuropathy; assay type: in vivo, C57BL/6J mice; conditions: for Motor nerve conduction velocity: STZ mice, n = 6
Description: as §1
(§7) 5) Motor nerve conduction velocity testing experiment: (1) Electrode placement: A stimulation electrode was placed at a nerve trunk, a recording electrode was placed at a muscle belly, a reference electrode was placed at a muscle tendon, and a ground wire was placed between the stimulation electrode and the recording electrode. (2) Motor nerve conduction velocity calculation: Super-strong stimulation was performed on distal and proximal ends of the nerve trunk, 2 compound muscle action potentials might be recorded on muscles dominated by this nerve, and different latency periods thereof were measured. The nerve conduction velocity was obtained by dividing a distance between the distal and proximal ends by a latency period difference between two points. A calculation formula was: Nerve conduction velocity (m/s)=distance between two points (cm)×10/latency period difference between two points.

[7] = test system: db/db type II diabetic mice; test: Motor nerve conduction velocity, type II diabetic peripheral neuropathy; assay type: in vivo; conditions: for Motor nerve conduction velocity: db/db mice, n = 6
Description: as §5, §7

[8] = test system: DRG primary cells (peripheral sensory neurons); test: Growth of peripheral sensory neurites, β-tubulin III fluorescent staining; assay type: cell-based, C57BL6 mouse; conditions: 24 hours incubation with different concentrations of drofenine, FIG. 1 and FIG. 2
Description: The experiment was based on that DPN firstly leads to abnormality of sensory neurons, and the main pathological changes were axonal atrophy and degeneration, or even disappearance. For DRG, as peripheral sensory neurons, its neurite growth state is closely related to a development process of the DPN. The inventor of the present invention added DMSO and different concentrations of drofenine into DRG primary cells for common incubation for a certain time. Then, the growth of the neurites was determined by a β-tubulin III fluorescent staining detection method, and lengths were quantified by ImageJ. The effect of the drofenine on promoting the growth of the peripheral sensory neurites was evaluated on the basis.
1) β-tubulin III for fluorescent staining was purchased from Sigma company. All cell culture reagents were purchased from Gibco company. DRG cells were taken from C57BL6 mouse spines.
2) β-tubulin III staining experiment: DRG cells were inoculated in a 12-hole plate at 100 cells/hole. After the DRG cells were attached to a wall overnight, incubation was performed for 24 hours by different concentrations of drofenine. Then, an original culture medium is removed. 4% of paraformaldehyde was added into each hole for immobilization for 15 min. Permeabilization was performed for 5 min by 0.3% Triton. After PBS washing, room-temperature sealing was performed for 1 h. […]

[9] = 10 mg/kg intraperitoneal, administration week 0, mean ± SEM
[10] = 10 mg/kg intraperitoneal, administration week 1, mean ± SEM
[11] = 10 mg/kg intraperitoneal, administration week 2, mean ± SEM
[12] = 10 mg/kg intraperitoneal, administration week 3, mean ± SEM
[13] = 10 mg/kg intraperitoneal, administration week 4, mean ± SEM
[14] = 20 mg/kg intraperitoneal, administration week 0, mean ± SEM
[15] = 20 mg/kg intraperitoneal, administration week 1, mean ± SEM
[16] = 20 mg/kg intraperitoneal, administration week 2, mean ± SEM
[17] = 20 mg/kg intraperitoneal, administration week 3, mean ± SEM
[18] = 20 mg/kg intraperitoneal, administration week 4, mean ± SEM

Sequence of BChE (P06276 29-602, species assumed): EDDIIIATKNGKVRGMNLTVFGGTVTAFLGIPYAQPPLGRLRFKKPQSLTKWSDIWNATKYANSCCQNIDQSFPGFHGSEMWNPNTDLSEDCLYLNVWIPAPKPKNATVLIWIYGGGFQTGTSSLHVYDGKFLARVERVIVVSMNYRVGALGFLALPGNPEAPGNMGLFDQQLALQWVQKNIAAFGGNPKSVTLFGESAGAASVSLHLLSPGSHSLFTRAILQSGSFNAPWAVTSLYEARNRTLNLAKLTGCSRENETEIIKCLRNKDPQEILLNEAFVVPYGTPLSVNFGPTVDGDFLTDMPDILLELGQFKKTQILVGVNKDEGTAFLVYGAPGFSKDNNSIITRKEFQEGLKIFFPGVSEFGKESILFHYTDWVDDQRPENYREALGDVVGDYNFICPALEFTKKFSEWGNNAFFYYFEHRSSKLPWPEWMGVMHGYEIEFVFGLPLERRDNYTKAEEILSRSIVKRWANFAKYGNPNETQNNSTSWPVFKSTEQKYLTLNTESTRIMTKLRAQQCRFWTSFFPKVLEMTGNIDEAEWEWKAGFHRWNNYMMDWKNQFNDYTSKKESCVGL

For CCN(CC)CCOC(=O)C(c1ccccc1)C1CCCCC1 (stereo not shown) [Drofenine], the BChE inhibition [1] is given as “effective BChE competitive inhibitor”, the Heat response [2, 9] is given as 11.43 ± 0.98 s and the Heat response [2, 10] is given as 11.12 ± 0.66 s. It also gave a Heat response [2, 11] of 10.28 ± 0.68 s, a Heat response [2, 12] of 8.96 ± 0.26 s and a Heat response [2, 13] of 8.78 ± 0.26 s. It also gave a Heat response [2, 14] of 10.3 ± 0.60 s, a Heat response [2, 15] of 10.77 ± 0.94 s and a Heat response [2, 16] of 8.64 ± 0.69 s. For the same compound, the Heat response [2, 17] was 7.91 ± 0.54 s, the Heat response [2, 18] was 7.71 ± 0.68 s and the “50% paw withdrawal threshold” value [3, 9] was 2.81 ± 0.17 g. For the same compound, the “50% paw withdrawal threshold” value [3, 10] was 2.82 ± 0.22 g, the “50% paw withdrawal threshold” value [3, 11] was 2.21 ± 0.13 g and the “50% paw withdrawal threshold” value [3, 12] was 2.09 ± 0.34 g. For the same compound, the “50% paw withdrawal threshold” value [3, 13] was 1.98 ± 0.21 g, the “50% paw withdrawal threshold” value [3, 14] was 2.83 ± 0.19 g and the “50% paw withdrawal threshold” value [3, 15] was 2.62 ± 0.26 g. The “50% paw withdrawal threshold” value [3, 16] was 2.01 ± 0.13 g, the “50% paw withdrawal threshold” value [3, 17] was 1.92 ± 0.12 g and the “50% paw withdrawal threshold” value [3, 18] was 1.82 ± 0.01 g. The “50% paw withdrawal threshold” value [4, 9] was 2.77 ± 0.19 g, the “50% paw withdrawal threshold” value [4, 10] was 2.53 ± 0.25 g and the “50% paw withdrawal threshold” value [4, 11] was 1.31 ± 0.13 g. The “50% paw withdrawal threshold” value [4, 12] was 1.40 ± 0.13 g, the “50% paw withdrawal threshold” value [4, 13] was 1.45 ± 0.11 g and the “50% paw withdrawal threshold” value [4, 14] was 2.77 ± 0.19 g. The “50% paw withdrawal threshold” value [4, 15] was 2.06 ± 0.31 g, the “50% paw withdrawal threshold” value [4, 16] was 1.31 ± 0.13 g and the “50% paw withdrawal threshold” value [4, 17] was 1.27 ± 0.12 g. For the same compound, the “50% paw withdrawal threshold” value [4, 18] was 1.35 ± 0.10 g, the Heat response [5, 9] was 10.43 ± 0.98 s and the Heat response [5, 10] was 13.52 ± 0.69 s. For the same compound, the Heat response [5, 11] was 10.58 ± 0.32 s, the Heat response [5, 12] was 8.96 ± 0.56 s and the Heat response [5, 13] was 9.78 ± 0.56 s. The Heat response [5, 14] was 10.39 ± 0.30 s, the Heat response [5, 15] was 10.77 ± 0.54 s and the Heat response [5, 16] was 8.54 ± 0.79 s. For the same compound, the Heat response [5, 17] was 8.51 ± 0.55 s, the Heat response [5, 18] was 8.01 ± 0.68 s and the “Motor nerve conduction velocity” value [6, 9] was 39.61 ± 1.06 m/s. For the same compound, the “Motor nerve conduction velocity” value [6, 11] was 40.55 ± 2.14 m/s, the “Motor nerve conduction velocity” value [6, 14] was 40.63 ± 1.03 m/s and the “Motor nerve conduction velocity” value [6, 16] was 43.82 ± 1.37 m/s. For the same compound, the “motor nerve conduction velocity and sensation loss of the type I diabetic peripheral neuropathy” value ([6]; summary in words of Tables 1-3, STZ mice) was “significantly relieve”, the “Motor nerve conduction velocity” value [7, 9] was 34.61 ± 1.06 m/s and the “Motor nerve conduction velocity” value [7, 10] was 36.55 ± 2.14 m/s. The “Motor nerve conduction velocity” value [7, 11] was 38.23 ± 3.20 m/s, the “Motor nerve conduction velocity” value [7, 12] was 39.34 ± 2.89 m/s and the “Motor nerve conduction velocity” value [7, 13] was 40.12 ± 2.87 m/s. The “Motor nerve conduction velocity” value [7, 14] was 35.63 ± 1.03 m/s, the “Motor nerve conduction velocity” value [7, 15] was 38.82 ± 1.37 m/s and the “Motor nerve conduction velocity” value [7, 16] was 40.23 ± 2.02 m/s. For the same compound, the “Motor nerve conduction velocity” value [7, 17] was 41.56 ± 2.35 m/s, the “Motor nerve conduction velocity” value [7, 18] was 42.28 ± 2.26 m/s and the “motor nerve conduction velocity and sensation loss of db/db type II diabetic peripheral neuropathy” value ([7]; summary in words of Tables 4-6, db/db mice) was “significantly relieve”. The “growth of the peripheral sensory neurites” value [8] was “promote the growth (quantitative diagram) of the peripheral sensory neurites in a concentration dependent way”.
